Experimental data reported in US12495798B2, “Nicotinamide compound and herbicidal composition comprising compound” (KOREA RESEARCH INSTITUTE OF CHEMICAL TECHNOLOGY, priority 2019, dated 2025).

How the values were obtained:
Type in all cases: in vivo
[1] = test system: cocklebur; assay: Herbicidal activity test against upland field weeds (foliar treatment test); settings: 50 g ai/ha, scale 0-100; for pest or weed control at 50 g/ha: Xanthium strumarium
Procedure, shortened: (§1)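 Greenhouse-grown plants (30±5 °C, 14/10 h light/dark) foliar hand-sprayed with compound in 50% acetone, 0.1% Tween-20 at 50 or 75 g a.i./ha. Control visually scored 0 (none) to 100 (complete) versus untreated after 14 days, or 21 days if needed.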

[2] = test system: crabgrass; assay: as above; parameters: key to Foliar treatment herbicidal activity, Crabgrass: 0 (no control); 100 (complete control); settings: 50 g ai/ha, scale 0-100; for pest or weed control at 50 g/ha: Digitaria sanguinalis
Procedure, shortened: as §1

[3] = test system: fall panicum; assay: as above; settings: 50 g ai/ha, scale 0-100; for pest or weed control at 50 g/ha: Panicum dichotomiflorum
Procedure, shortened: as §1

[4] = test system: indian jointvetch; assay: as above; parameters: key to Foliar treatment herbicidal activity, Indian jointvetch: 0 (no control); 100 (complete control); settings: 50 g ai/ha, scale 0-100
Procedure, shortened: as §1

[5] = test system: sorghum; assay: as above; parameters: key to Foliar treatment herbicidal activity, Sorghum: 0 (no control); 100 (complete control); settings: 50 g ai/ha, scale 0-100; for plant injury at 50 g/ha: Sorghum
Procedure, shortened: as §1

[6] = test system: wheat; assay: Phytotoxicity test for upland field crops (foliar treatment test); parameters: key: 0 (no harm); 9 (complete withered)
Procedure, shortened: (§2)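 Phytotoxicity was rated on a 0 (no harm) to 9 (complete withered) scale relative to untreated plants, 7 and 14 days after spraying. Crops had been grown in fertilized horticultural soil under greenhouse conditions before foliar application at 19˜300 g a.i./ha.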

[7] = test system: corn; assay: as above; parameters: key: 0 (no harm); 9 (complete withered)
Procedure, shortened: as §2

[8] = test system: barnyard grass; assay: Herbicidal activity test against upland field weeds (foliar treatment test); parameters: key to Foliar treatment herbicidal activity, barnyard grass: 0 (no control); 100 (complete control); settings: 50 g ai/ha, scale 0-100; for pest or weed control at 50 g/ha: Echinochloa crus-galli
Procedure, shortened: as §1

[9] = test system: velvetleaf; assay: as above; settings: 50 g ai/ha; for pest or weed control at 50 g/ha: Abutilon theophrasti, scale 0-100, read-out: Foliar treatment herbicidal activity, velvet leaf
Procedure, shortened: as §1

[10] = test system: black nightshade; assay: as above; parameters: key to Foliar treatment herbicidal activity, black nightshade: 0 (no control); 100 (complete control); settings: 50 g ai/ha, scale 0-100; for pest or weed control at 50 g/ha: Solanum nigrum
Procedure, shortened: as §1

[11] = test system: bindweed; assay: as above; settings: 50 g ai/ha, scale 0-100
Procedure, shortened: as §1

[12] = test system: quack grass; assay: as above; parameters: key to Foliar treatment herbicidal activity, quack grass: 0 (no control); 100 (complete control); settings: 50 g ai/ha, scale 0-100
Procedure, shortened: as §1

[13] = 50 g ai/ha, Wheat (7 days after treatment)
[14] = 50 g ai/ha, Wheat (14 days after treatment)
[15] = 100 g ai/ha, Wheat (7 days after treatment)
[16] = 100 g ai/ha, Wheat (14 days after treatment)
[17] = 50 g ai/ha, Corn (7 days after treatment)
[18] = 50 g ai/ha, Corn (14 days after treatment)
[19] = 100 g ai/ha, Corn (7 days after treatment)
[20] = 100 g ai/ha, Corn (14 days after treatment)

Row | Structure (SMILES) | pest or weed control at 50 g/ha [1] | pest or weed control at 50 g/ha [2] | pest or weed control at 50 g/ha [3] | pest or weed control at 50 g/ha [4] | plant injury at 50 g/ha [5] | Foliar treatment phytotoxicity, Wheat [6, 13] | Foliar treatment phytotoxicity, Wheat [6, 14] | Foliar treatment phytotoxicity, Wheat [6, 15] | Foliar treatment phytotoxicity, Wheat [6, 16] | Foliar treatment phytotoxicity, Corn [7, 17] | Foliar treatment phytotoxicity, Corn [7, 18] | Foliar treatment phytotoxicity, Corn [7, 19] | Foliar treatment phytotoxicity, Corn [7, 20] | pest or weed control at 50 g/ha [8] | pest or weed control at 50 g/ha [9] | Foliar treatment herbicidal activity, black nightshade [10] | pest or weed control at 50 g/ha [11] | Foliar treatment herbicidal activity, quack grass [12] | Foliar treatment herbicidal activity, Crabgrass [2] | Foliar treatment herbicidal activity, Sorghum [5] | also measured
1 | Cn1nc(COCc2nc(C(F)(F)F)ccc2C(=O)Nc2nnnn2C)nc1CF [Compound No. 2-126, 2-(((5-(fluoromethyl)-1-methyl-1H-1,2,4-triazol-3-yl)methoxy)methyl)-N-(1-methyl-1H-tetrazol-5-yl)-6-(trifluoromethyl)nicotinamide] | 90% | 90% | 80% | 50% | 60% | 0 | 0 | 0 | 0 | 1 | 1 | 3 | 2 | 80% | 80% | 100 | 20% | 0 | – | – | –
2 | Cn1nnnc1NC(=O)c1ccc(C(F)(F)F)nc1COCc1nc(C(F)(F)F)n(C)n1 [Compound No. 2-118, N-(1-methyl-1H-tetrazol-5-yl)-2-(((1-methyl-5-(trifluoromethyl)-1H-1,2,4-triazol-3-yl)methoxy)methyl)-6-(trifluoromethyl)nicotinamide] | 90% | 90% | 95% | 50% | 40% | 0 | 0 | 0 | 0 | 0 | 0 | 0 | 0 | 95% | 90% | 100 | 95% | 0 | – | – | –
3 | CCCn1nnnc1NC(=O)c1ccc(C(F)(F)F)nc1COCc1ncn(C)n1 [Compound No. 2-114, 2-(((1-methyl-1H-1,2,4-triazol-3-yl)methoxy)methyl)-N-(1-propyl-1H-tetrazol-5-yl)-6-(trifluoromethyl)nicotinamide] | 90% | – | 40% | 20% | – | 1 | 0 | 2 | 1 | 1 | 0 | 2 | 0 | 60% | 70% | – | 80% | – | 0 | 0 | pest or weed control at 50 g/ha [10]: 95%; pest or weed control at 50 g/ha [12]: 10%
4 | C=CCn1nnnc1NC(=O)c1ccc(C(F)(F)F)nc1COCc1ncn(C)n1 [Compound No. 2-115, N-(1-allyl-1H-tetrazol-5-yl)-2-(((1-methyl-1H-1,2,4-triazol-3-yl)methoxy)methyl)-6-(trifluoromethyl)nicotinamide] | 90% | 20% | 50% | – | 10% | 0 | 0 | 0 | 0 | 0 | 0 | 0 | 0 | – | 50% | 100 | 80% | 0 | – | – | Foliar treatment herbicidal activity, Indian jointvetch [4]: 0; Foliar treatment herbicidal activity, barnyard grass [8]: 0
5 | CCn1nnc(COCc2nc(C(F)(F)F)ccc2C(=O)Nc2nnnn2C)n1 [Compound No. 2-87, 2-(((2-ethyl-2H-tetrazol-5-yl)methoxy)methyl)-N-(1-methyl-1H-tetrazol-5-yl)-6-(trifluoromethyl)nicotinamide] | 60% | – | 40% | 20% | – | 0 | 0 | 0 | 0 | 0 | 0 | 0 | 0 | 10% | 70% | – | 80% | 0 | 0 | 0 | pest or weed control at 50 g/ha [10]: 98%
6 | Cn1nnnc1NC(=O)c1ccc(C(F)(F)F)nc1COCc1nc(C(F)F)n(C)n1 [Compound No. 2-123] | – | – | – | – | – | 0 | 0 | 0 | 0 | 3 | 2 | 4 | 4 | – | – | 98 | – | 40 | 95 | 70 | Foliar treatment herbicidal activity, Cocklebur [1]: 90; Foliar treatment herbicidal activity, Fall panicum [3]: 95; Foliar treatment herbicidal activity, Indian jointvetch [4]: 70; Foliar treatment herbicidal activity, barnyard grass [8]: 95; Foliar treatment herbicidal activity, velvet leaf ([9]; scale 0-100): 70; Foliar treatment herbicidal activity, Bindweed [11]: 80
